We go through seven substances from patent publication US20050096294A1, “Novel anti-coagulant” (priority 2003, published 2005).

What all share (format): biochemical, human
Assay [1] concerns extrinsic pathway coagulation. Briefly: Prothrombin time (PT). The note with it: for PT: standard control 12.6. The source says: (5) Prothrombin Time (PT):
The present method is a method for inspecting dynamics of extrinsic pathway coagulation. The present method has sensitivity to qualitative and quantitative abnormality in the factor II (prothrombin), the factor V, the factor VII, the factor X and the factor I (fibrinogen), and it is scarcely influenced by the […] and the factor VIII. First, normal (normal volunteer) blood citrate-collected (collected in a plastic test tube charged with 3.13 wt % sodium citrate of 1/10 volume) was subjected to centrifugal separation at 3000 rpm for 10 minutes to obtain supernatant plasma. The PT time was obtained by mixing plasma for inspection with a PT reagent (a mixed solution of tissue thromboplastin and calcium chloride) to measure fibrin-depositing time (second) (using an automatic measuring apparatus). The sample of the sulfated polysaccharide was added to the plasma for inspection in an addition concentration of 0.001 to 1 mg/ml, and normal plasma was used for a standard control.

The test system of assay [2] is intrinsic pathway coagulation. Briefly: Activated partial thromboplastin time (APTT). The source says:
(4) Activated Partial Thromboplastin Time (APTT):
The present method is a method for inspecting dynamics of intrinsic pathway coagulation. The present method has sensitivity to qualitative and quantitative abnormality in the factor XII, the factor XI, high molecular weight kininogen, prekallikrein, the factor IX, the factor VIII, the factor X, the factor V, the factor II (prothrombin) and the factor I (fibrinogen). First, normal (normal volunteer) blood citrate-collected (collected in a plastic test tube charged with 3.13 wt % sodium citrate of 1/10 volume) was subjected to centrifugal separation at 3000 rpm for 10 minutes to obtain supernatant plasma. The APTT time was obtained by mixing plasma for inspection with an APTT reagent and then measuring fibrin-depositing time (second) after adding a calcium chloride solution (using an automatic measuring apparatus). The sulfated polysaccharide was added to the plasma for inspection in an addition concentration of 0.001 to 1 mg/ml, and normal plasma was used for a standard control.

In assay [3] the test system is blood immediately after collected from a normal person. Briefly: Normal blood coagulation time. The conditions noted are these: for Normal blood coagulation time: standard control 42.5. Here is the method:
(3) Normal Blood Coagulation Time (Second):
The sulfated polysaccharide 50 μl was separately put (the concentration was adjusted so that the final concentration was a measured concentration) in advance into plastic test tubes (3.3 ml blood collected tube, manufactured by IWAKI Co., Ltd.), and each 1 ml of blood immediately after collected from a normal person was put into the test tubes containing the sulfated polysaccharide and quickly mixed, and the test tubes were repetitively inclined to measure time (second) in which the fluidity disappeared.

Where [4] appears, read: addition concentration 0.001 mg/ml in normal plasma.
[5] abbreviates: addition concentration 0.01 mg/ml in normal plasma.
The mark [6] stands for this setting: addition concentration 0.1 mg/ml in normal plasma.
[7] abbreviates: addition concentration 1 mg/ml in normal plasma.
Setting [8] is: addition concentration 0.001 mg/ml in normal plasma, standard control 35.
Setting [9] is: addition concentration 0.01 mg/ml in normal plasma, standard control 35.
The mark [10] stands for this setting: addition concentration 0.1 mg/ml in normal plasma, standard control 35.
[11] abbreviates: addition concentration 1 mg/ml in normal plasma, standard control 35 (30 in Example 1).
Setting [12] is: addition concentration 0.001 mg/ml.
Setting [13] is: addition concentration 0.01 mg/ml.
Where [14] appears, read: addition concentration 0.1 mg/ml.

As to gellan sulfate [Example 3], the PT in assay [1] (setting [4]) was 11.3 s; in assay [1] (setting [5]), 11.8 s; in assay [1] (setting [6]) it was 19.3 s; in assay [1] (setting [7]), ≥ 300 s. The APTT in assay [2] (setting [8]) was 49 s; in assay [2] (setting [9]), 103.5 s; in assay [2] (setting [10]), ≥ 300 s; in assay [2] (setting [11]), ≥ 300 s. For the same substance, the “Normal blood coagulation time” value is 58.9 min in assay [3] (setting [12]), 138.8 min in assay [3] (setting [13]), 216.3 min in assay [3] (setting [14]) and ≥ 600 min in assay [3] (addition concentration 1 mg/ml).

As for gellan sulfate [Example 4], the PT in assay [1] (setting [4]) was 13 s; in assay [1] (setting [5]) it was 12 s; in assay [1] (setting [6]), 14 s; in assay [1] (setting [7]) it was ≥ 300 s. Besides, the APTT in assay [2] (setting [8]) is 45 s; in assay [2] (setting [9]), 45 s; in assay [2] (setting [10]), ≥ 300 s; in assay [2] (setting [11]), ≥ 300 s. Moreover, the “Normal blood coagulation time” value in assay [3] (setting [12]) was 39.9 min; in assay [3] (setting [13]), 72 min; in assay [3] (setting [14]) it was ≥ 600 min; in assay [3] (addition concentration 1 mg/ml) it was ≥ 600 min.

Regarding heparin [reference compound], the PT in assay [1] (setting [4]) was 13 s; in assay [1] (setting [5]), 13 s; in assay [1] (setting [6]), ≥ 300 s; in assay [1] (setting [7]), ≥ 300 s. The APTT in assay [2] (setting [8]) was 50 s; in assay [2] (setting [9]), ≥ 300 s; in assay [2] (setting [10]), ≥ 300 s; in assay [2] (setting [11]), ≥ 300 s. Moreover, the “Normal blood coagulation time” value in assay [3] (setting [12]) is 105.6 min; in assay [3] (setting [13]), ≥ 600 min; in assay [3] (setting [14]) it was ≥ 600 min; in assay [3] (addition concentration 1 mg/ml) it was ≥ 600 min.

Take gellan sulfate [Example 1]: in assay [1] (gellan sulfate added to plasma, versus sample without gellan sulfate), the “PT time, extension (in words)” value is reported as “significant extension of the time was not observed”. For the same substance, the APTT in assay [2] (setting [11]) amounted to 95 s.

As to “chondroitin sulfate [reference compound]”, the “coagulation time of normal blood, extension (in words)” value in assay [3] (addition of 0.01 mg/ml) was “not observed at all to be extended”.

As to gellan sulfate [Example 2], the PT in assay [1] (setting [4]) is 11.6 s; in assay [1] (setting [5]), 11.7 s; in assay [1] (setting [6]), 15.8 s; in assay [1] (setting [7]), ≥ 300 s. In addition, the APTT in assay [2] (setting [8]) was 38.1 s; in assay [2] (setting [9]) it was 30 s; in assay [2] (setting [10]) it was ≥ 300 s; in assay [2] (setting [11]) it was ≥ 300 s. In addition, the “Normal blood coagulation time” value is 54 min in assay [3] (setting [12]), 93 min in assay [3] (setting [13]), 230 min in assay [3] (setting [14]) and ≥ 600 min in assay [3] (addition concentration 1 mg/ml).

Consider “gellan sulfate [compound 1, reference compound]”, for which the “coagulation time of normal blood, extension (in words)” value in assay [3] (1 mg/ml added) was “not observed to be extended”.
